# According to patent publication US8466197B2, “Thiocarbonates as anti-inflammatory and antioxidant compounds useful for treating metabolic disorders” (Genmedica Therapeutics SL, priority 2010, dated 2013):
# Key:
# [1] = Pharmacokinetic study: diflunisal levels in plasma after oral administration in mice; assay type: in vivo; details: 0.05 mmol/kg
# Protocol: Diflunisal is detected in plasma of mice orally dosed with the compound described in Example 5 or the compound described in Example 8 (0.05 mmol/kg) (table 3).
# Male cd-1 mice weighing 25-30 g are purchased from Charles River Laboratories Spain. The animals are housed in animal quarters at 22° C. with a 12-h light/12-h dark cycle and fed ad libitum. O/N fasted animals are dosed at […] with 0.05 mmol/kg of the indicated compound. […] Plasma was separated after centrifugation of blood and kept at −20° C. until metabolites determination.
# [2] = In vitro cleavage studies: incubation with human liver S9 fraction, release of the NSAID; assay type: in vitro ADME; details: after 1 h of incubation
# Protocol: Table 1 and 2 summarize in vitro data showing that thiocarbonate compounds are hydrolyzed in the presence of human liver S9 fraction and release the NSAID component, Diflunisal (Table 1) or salicylate (Table 2).
# The compounds are incubated with human liver S9 fraction to study its metabolic stability and to profile and identify the forming metabolites. The basic incubation mixture of 500 μl in volume consisted of the following components: 1.5 mg of protein per ml, substrate in DMSO, 1 mM NADPH, 1 mM UDPGA, 1 mM PAPS and 1 mM GSH. The substrate concentration used was 2 μM. The final amount of DMSO in the incubation was 1% (v/v). Each reaction mixture was preincubated for 2 minutes at +37° C. The reaction was started by addition of cofactors. After an incubation of 60 min, a 100 μl sample was collected and the reaction was terminated by adding an equal volume of ice-cold acetonitrile. Samples were subsequently cooled in an ice bath for 15 minutes and analyzed. […] The samples are analyzed by HPLC/TOF-MS to monitor both the disappearance of the parent compound and formation of metabolites. […] In addition to ion source conditions optimised to produce molecular ions with high abundance, the samples from last time point (60 min) are analysed also using another parameters (higher aperture voltage) to generate high-resolution in-source fragment ion data. […]
# [3] = test system: db/db mice; experiment: Reduction of fasting glycemia in db/db mice; assay type: in vivo; details: db/db mice treated for two weeks with a daily dose, versus vehicle; t-test p less than 0.01 (FIG. 1)
# Protocol: 5-weeks old male mice C57BL/Ks bearing the db/db mutation (The Jackson Laboratories) and 7-weeks old male mice C57BL/6 bearing the ob/ob mutation are purchased from Charles River Laboratories Spain (Sant Cugat del Vallès, Spain) are treated with compounds as disclosed herein for a month, administered by single oral injection. Glycemia levels are determined in blood from the Tail Vein, using a rapid glucose analyzer (Accu-Chek Aviva; Roche) 3 times per week, as well as body weight measure. The food and water intake is measured twice a week.
# db/db mice were treated for two weeks with a daily dose of the compound of Example 8, (R)-2-acetamido-3-((2′,4′-difluoro-3-(propoxycarbonyl)biphenyl-4-yloxy)carbonylthio) propanoic acid, or with vehicle.
Diflunisal detected in plasma of orally dosed mice [1],Compound,Release of the NSAID (diflunisal or salicylate) on incubation in the presence of human liver S9 fraction [2],Fasting glycemia [3]
detected,"COC(=O)c1cc(-c2ccc(F)cc2F)ccc1OC(=O)SCCC(NC(C)=O)C(=O)O (racemic) [Example 5, (+/−)-2-Acetamido-4-((2′,4′-difluoro-3-(methoxycarbonyl)biphenyl-4-yloxy)carbonylthio)butanoic acid]",,
,"CC(=O)N[C@@H](CSC(=O)Oc1ccccc1C(=O)OCc1ccccc1)C(=O)O [Example 4, (R)-2-Acetamido-3-((2-(benzyloxycarbonyl)phenoxy)carbonylthio) propanoic acid]",no diflunisal or salicylate has been detected,
,"COC(=O)c1ccccc1OC(=O)SC[C@H](NC(C)=O)C(=O)O [Example 2, (R)-2-Acetamido-3-((2-(methoxycarbonyl)phenoxy)carbonylthio)propanoic acid]",no diflunisal or salicylate has been detected,
detected,"CCCOC(=O)c1cc(-c2ccc(F)cc2F)ccc1OC(=O)SC[C@H](NC(C)=O)C(=O)O [Example 8, (R)-2-Acetamido-3-((2′,4′-difluoro-3-(propoxycarbonyl)biphenyl-4-yloxy)carbonylthio)propanoic acid]",,significantly reduced
